Results published in patent US9540381B2, “Anti-angiogenesis compound, intermediate and use thereof” (Guangzhou KangRui Biological Pharmaceutical Technology Co., …, priority 2013, dated 2017).

Columns and labels:
[1] = test system: vessel development of the FLK1-GFP transgenic danio rerio; experiment: Inhibition test on vascular development of Danio rerio; type: in vivo; settings: for inhibition at 0.1 µM / inhibition at 1 µM / inhibition at 5 µM / inhibition at 10 µM / inhibition at 20 µM / inhibition at 40 µM / inhibition at 100 µM: Danio rerio, after 24 hours, n = 5, read-out: inhibition rate on the development of vertebral vessel; for inhibition at 0.1 µM: 100 nM; for inhibition effect on the vessel development of the danio rerio (in words): Table 1 and FIG. 7
Description: Female fish can spawn 200-300 […], and the fertilization and embryonic development processes are conducted in vitro. They can grow up within 24 hours, and the embryo is transparent, which is suitable for observing the change of intracorporal organs and tissues. These characteristics make the danio rerio become to be one of the five fish laboratory animals accepted by the international organization for standardization. Currently, the danio rerio is widely used in human disease studies, especially used in cardiovascular system studies. The danio rerio can be used for screening the influence of small molecular compounds on angiogenesis. Experimental Method: This experiment uses FLK1-GFP transgenic danio rerio as an animal model which is generally used for screening the influence of compounds on angiogenesis. Vessel can be in vivo observed under fluorescence microscope (Suk-Won Jin, 2005, Development). The selected embryo of the postnatal FLK1-GFP transgenic danio rerio was placed into a culture dish and incubated for 3-5 days in an incubator at 28° C. […] Examine the developmental condition of the vertebral vessel after 24 hours and take photo by use of the fluorescence microscope.

VEGFR2 = biological target: T1, VEGFR2 (Homo sapiens, UniProt P35968); experiment: In vitro inhibition test on VEGFR2 in HUVECs (anti-phosphorylated VEGFR2 blot); type: cell-based; settings: 10 nM, 100 nM and 1 μM, 50 ng/ml VEGF
T1 construct: endogenous in cells; host or cells: primary HUVECs P3-P5
Description: The experimental method of detecting the inhibition of the compounds of the present invention on VEGFR2 kinase is as follows:
1) The primary cultured human umbilical vein endothelial cells (HUVECs) P3-P5 were transferred to 6 well plate, 2×10^5 cells per well;
2) compounds 2-1, 2-2 and 2-4 of the present invention (the concentrations are 10 nM, 100 nM and 1 μM for each compound) were added when the cells grow to 70-80%, VEGF was a control, incubation for 30 min;
3) 50 ng/ml VEGF (cell Signaling company, US) was added, stimulating for 10 min;
4) nondenature lysis buffer was added to terminate the reaction, and cell lysis buffer was collected to carry out protein quantification;
5) SDS-PAGE electrophoresis, transfer to nitrocellulose membrane, the membrane was cut off and sealed in phosphate tween buffer, TTBS buffer (Tris-buffered saline 0.01% Tween 20, cell Signaling company, US, PH8.0) formulated from 5% skimmed milk for 2 hours; 6) wash the membrane, seal at 4° C. overnight by use of an anti-phosphorylated VEGFR2 antibody (1:1000 dilution, cell Signaling company, US); 7) on the second day after washing membrane, horse radish peroxidase marked goat anti-rabbit second antibody (cell Signaling company, US) was incubated with the membrane at room temperature for 1 hour; 8) develop with chemiluminescence kit (Millipore company) after washing membrane, and take photos.

T1 sequence (P35968 20-1356): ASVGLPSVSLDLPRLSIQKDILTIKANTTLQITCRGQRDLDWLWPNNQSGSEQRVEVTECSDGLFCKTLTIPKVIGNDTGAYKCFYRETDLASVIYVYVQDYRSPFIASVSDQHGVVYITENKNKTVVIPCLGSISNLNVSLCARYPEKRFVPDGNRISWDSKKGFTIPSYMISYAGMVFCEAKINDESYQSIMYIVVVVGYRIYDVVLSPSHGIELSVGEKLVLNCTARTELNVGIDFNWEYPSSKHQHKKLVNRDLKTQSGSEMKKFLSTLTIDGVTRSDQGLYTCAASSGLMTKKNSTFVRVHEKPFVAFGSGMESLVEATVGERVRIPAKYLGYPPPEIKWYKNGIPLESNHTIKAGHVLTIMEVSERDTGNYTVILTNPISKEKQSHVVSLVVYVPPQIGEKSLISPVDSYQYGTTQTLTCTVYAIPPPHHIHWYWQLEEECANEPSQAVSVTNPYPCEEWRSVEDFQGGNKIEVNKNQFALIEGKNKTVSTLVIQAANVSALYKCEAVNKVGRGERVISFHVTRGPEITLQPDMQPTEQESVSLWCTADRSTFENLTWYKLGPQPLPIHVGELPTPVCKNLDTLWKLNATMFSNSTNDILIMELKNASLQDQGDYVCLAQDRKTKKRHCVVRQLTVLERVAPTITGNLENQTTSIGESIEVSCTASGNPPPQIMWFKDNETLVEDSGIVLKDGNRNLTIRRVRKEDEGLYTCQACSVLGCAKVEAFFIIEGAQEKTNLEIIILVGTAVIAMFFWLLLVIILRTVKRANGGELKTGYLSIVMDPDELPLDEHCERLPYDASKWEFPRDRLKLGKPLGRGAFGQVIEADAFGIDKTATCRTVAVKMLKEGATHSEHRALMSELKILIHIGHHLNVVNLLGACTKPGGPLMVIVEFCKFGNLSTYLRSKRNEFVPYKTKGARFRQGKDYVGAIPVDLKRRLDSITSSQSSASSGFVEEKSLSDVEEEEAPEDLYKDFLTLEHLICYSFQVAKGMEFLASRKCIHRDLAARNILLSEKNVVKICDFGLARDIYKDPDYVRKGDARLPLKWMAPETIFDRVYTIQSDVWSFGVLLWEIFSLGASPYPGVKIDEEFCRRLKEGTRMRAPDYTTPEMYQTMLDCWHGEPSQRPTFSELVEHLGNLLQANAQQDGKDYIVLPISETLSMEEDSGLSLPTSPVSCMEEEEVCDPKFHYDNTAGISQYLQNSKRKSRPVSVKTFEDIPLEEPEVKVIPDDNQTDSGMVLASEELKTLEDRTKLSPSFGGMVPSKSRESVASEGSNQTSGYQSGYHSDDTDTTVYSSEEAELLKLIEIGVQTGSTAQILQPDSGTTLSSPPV

| inhibition of VEGFR2 (in words, FIG. 8) (VEGFR2) | SMILES | inhibition at 0.1 µM [1] | inhibition at 1 µM [1] | inhibition at 5 µM [1] | inhibition at 10 µM [1] | inhibition at 20 µM [1] | inhibition at 40 µM [1] | inhibition at 100 µM [1] | inhibition effect on the vessel development of the danio rerio (in words) [1] |
| --- | --- | --- | --- | --- | --- | --- | --- | --- | --- |
| – | O=C(Nc1cccc(C(F)(F)F)c1)c1cccc2nc(Oc3ncnc4c3CCNC4)ccc12 [Compound 2-3] | 0% | 0% | 0% | 0% | 0% | 5% | 20% | have inhibition effect on the vessel development of the danio rerio |
| can inhibit VEGFR2 | CNCc1cc(Oc2ccc3c(C(=O)Nc4cccc(C(F)(F)F)c4)cccc3n2)ncn1 [Compound 2-4] | 0% | 0% | 0% | 0% | 5% | 25% | 70% | have inhibition effect on the vessel development of the danio rerio |
| – | O=C(Nc1cccc(C(F)(F)F)c1)c1cccc2nc(Oc3ncnc4c3CNC4)ccc12 [Compound 2-5] | 0% | 0% | 10% | 40% | 80% | 100% | 100% | have inhibition effect on the vessel development of the danio rerio |
| – | Cc1ccc(Nc2nccc(N(C)c3ccc4c(C)n(C)nc4c3)n2)cc1S(N)(=O)=O [Compound 130B, Pazopanib, reference compound] | 0% | 0% | 85% | 90% | 95% | 95% | 100% | – |
